{"source": "patent US20210322469A1", "about": "“ZINC AND COPPER FOR THE PROPHYLAXIS AND TREATMENT OF COVID-19” (Regents of the University of Minnesota, priority 2020, published 2021)", "key": {"SARS-CoV-2": {"system": "SARS-CoV-2", "format": "in vivo", "settings": "patients receiving zinc prophylactically for AMD or for treatment of AMD"}, "[1]": {"biological_target": "angiotensin converting enzyme 2 (ACE2) (Homo sapiens, UniProt Q9BYF1)", "sequence (Q9BYF1 18-805)": "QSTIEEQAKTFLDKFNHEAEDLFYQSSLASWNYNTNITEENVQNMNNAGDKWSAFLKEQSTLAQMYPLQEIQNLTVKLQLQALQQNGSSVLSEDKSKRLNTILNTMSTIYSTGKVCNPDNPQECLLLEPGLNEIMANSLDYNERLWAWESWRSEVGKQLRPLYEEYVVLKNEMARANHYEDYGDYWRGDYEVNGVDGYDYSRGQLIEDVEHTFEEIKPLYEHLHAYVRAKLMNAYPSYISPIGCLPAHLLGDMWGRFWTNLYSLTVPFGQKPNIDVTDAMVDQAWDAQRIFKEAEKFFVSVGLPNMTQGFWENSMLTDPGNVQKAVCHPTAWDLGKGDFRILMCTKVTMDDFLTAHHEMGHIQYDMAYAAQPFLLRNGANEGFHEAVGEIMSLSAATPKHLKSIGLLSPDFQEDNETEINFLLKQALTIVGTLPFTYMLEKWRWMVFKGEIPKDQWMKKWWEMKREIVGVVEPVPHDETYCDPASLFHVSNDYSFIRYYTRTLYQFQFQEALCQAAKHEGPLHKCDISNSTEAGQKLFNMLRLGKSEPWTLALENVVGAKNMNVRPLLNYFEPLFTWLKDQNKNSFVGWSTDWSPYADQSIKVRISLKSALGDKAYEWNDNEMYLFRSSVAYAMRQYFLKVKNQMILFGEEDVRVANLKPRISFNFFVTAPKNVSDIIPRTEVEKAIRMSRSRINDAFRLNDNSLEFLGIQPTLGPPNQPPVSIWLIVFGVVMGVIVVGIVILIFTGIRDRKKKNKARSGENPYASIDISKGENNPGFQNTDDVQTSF", "settings": "Speth et al. 2014, cited from earlier work"}}, "note": "Where two headings read alike, the source gives them in different places."}
{"substance": "zinc", "values": [{"measurement": "COVID-19-related deaths", "setting": "SARS-CoV-2", "result": "no COVID-19-related deaths"}, {"measurement": "inhibition of ACE2 function", "setting": "[1]", "result": "inhibitor of ACE2 function"}, {"measurement": "inhibition of ACE2 function", "setting": "[1]; listed as Zinc", "result": "can inhibit the function of ACE2"}]}
